# Data: patent US20230416203A1, “POTENT AND SELECTIVE INHIBITORS OF THE CALCIUM-ACTIVATED POTASSIUM CHANNEL, KCA3.1, FOR USE AS PLATFORM THERAPEUTICS” (priority 2020, published 2023)
# Experiments:
# in vitro = settings: human, microsomes, pH 7.4
# CaV1.2 channel = CaV1.2 channel (Homo sapiens, UniProt Q13936); test: cell-based
# KV1.4 = target: T1, KV1.4 (Homo sapiens, UniProt P22459); test: Potassium channels patch-clamp (QPatch), KV1.4; type: cell-based
# T1 construct: expressed in transfected cells; host or cells: LTK
# Protocol: (§1) The effects of Group 4 compounds on related potassium channels were evaluated by patch-clamp using a QPatch HTX automated electrophysiology platform (Sophion, Denmark). The giga-seal and whole-cell requirements for the automated electrophysiology were the following: minimum seal resistance=0.1 GO, holding potential=−80 mV, holding pressure=−20 mbar; and positioning pressure=−70 mbar.
# CYP-3A4 = target: T2, CYP-3A4 (Homo sapiens, UniProt P08684); test: Cytochrome P450 enzymes inhibition assay, CYP-3A4; type: in vitro ADME; settings: for CYP IC50/KCa3.1 IC50: CYP-3A4
# T2 construct: from tissue
# From the text: (§2) The metabolite formation for each substrate under the above conditions was estimated using the following formula: Percent inhibition=[1−(test area ratio/control area ratio)]×100.
# KV1.2 = target: T3, KV1.2 (Rattus norvegicus, UniProt P63142); test: Potassium channels patch-clamp (QPatch), KV1.2; type: cell-based
# T3 construct: expressed in transfected cells; host or cells: B82
# Protocol: as §1
# KV11.1 (hERG) = target: T4, KV11.1 (hERG) (Homo sapiens, UniProt Q12809); test: Potassium channels patch-clamp (QPatch), KV11.1 (hERG); type: cell-based
# T4 construct: host or cells: CHO
# Protocol: as §1
# KV1.3 = target: T5, KV1.3 (Mus musculus, UniProt P16390); test: Potassium channels patch-clamp (QPatch), KV1.3; type: cell-based
# T5 construct: expressed in transfected cells; host or cells: L929
# Protocol: as §1
# CYP-2C9 = CYP-2C9 (Homo sapiens, UniProt P11712); test: Cytochrome P450 enzymes inhibition assay, CYP-2C9; type: in vitro ADME; settings: for CYP IC50/KCa3.1 IC50: CYP-2C9
# From the text: as §2
# KV4.2 = target: T6, KV4.2 (Rattus norvegicus, UniProt Q63881); test: Potassium channels patch-clamp (QPatch), KV4.2; type: cell-based
# T6 construct: expressed in transfected cells; host or cells: LTK
# T6 sequence (Q63881 1-630): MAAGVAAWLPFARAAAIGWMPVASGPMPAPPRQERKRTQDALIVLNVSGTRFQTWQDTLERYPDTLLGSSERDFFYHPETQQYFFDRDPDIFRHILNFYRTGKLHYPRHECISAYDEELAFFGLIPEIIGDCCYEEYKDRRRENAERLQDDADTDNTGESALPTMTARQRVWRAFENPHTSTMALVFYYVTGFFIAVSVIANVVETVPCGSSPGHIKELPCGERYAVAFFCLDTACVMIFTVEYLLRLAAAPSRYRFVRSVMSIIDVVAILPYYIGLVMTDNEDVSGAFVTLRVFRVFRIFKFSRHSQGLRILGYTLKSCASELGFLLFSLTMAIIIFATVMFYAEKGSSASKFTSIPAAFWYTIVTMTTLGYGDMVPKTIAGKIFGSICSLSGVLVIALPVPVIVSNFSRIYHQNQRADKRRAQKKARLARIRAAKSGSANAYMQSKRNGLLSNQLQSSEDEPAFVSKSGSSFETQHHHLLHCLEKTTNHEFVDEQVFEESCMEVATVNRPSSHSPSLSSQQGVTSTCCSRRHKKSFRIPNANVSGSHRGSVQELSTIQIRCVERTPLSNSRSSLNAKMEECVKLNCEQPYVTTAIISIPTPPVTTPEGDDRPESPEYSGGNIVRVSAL
# Protocol: as §1
# KCa3.1 channel = KCa3.1 channel (Homo sapiens, UniProt O15554); test: KCa3.1 patch-clamp (QPatch HTX automated and manual); type: cell-based
# Protocol: The effect of the compounds on KCa3.1 channel was evaluated by patch-clamp using a QPatch HTX automated electrophysiology platform (Sophion, Denmark) and by manual patch-clamp (HEKA, Germany). For QPatch experiments, the giga-seal and whole-cell requirements for the automated electrophysiology were the following: minimum seal resistance=0.1 GQ; holding potential=−80 mV; holding pressure=−20 mbar; and positioning pressure=−70 mbar. For KCa3.1 experiment, the external solution was Na^+-Ringer's and contained (in mM): 160 NaCl; 10 HEPES; 4.5 KCl; 1 MgCl2; and 2 CaCl2 (pH=7.4, 310 mOsm). […] Following establishment of the whole-cell configuration, cells were held at −80 mV and KCa3.1 currents elicited by a voltage protocol that held at −80 mV for 20 ms, stepped to −120 mV for 20 ms, ramped from −120 to +40 mV over 200 ms, and then stepped back to −120 mV for 20 ms. This pulse protocol was applied every 10 s. Current slopes (in amperes per second) were measured using the Sophion QPatch software and exported to Microsoft Excel and GraphPad Prism 7 for analysis. […] Curve-fitting and IC50 determination were performed using GraphPad Prism software.
# CYP-IA2 = target: T7, CYP-IA2 (Homo sapiens, UniProt P05177); test: Cytochrome P450 enzymes inhibition assay, CYP-IA2; type: in vitro ADME; settings: for CYP IC50/KCa3.1 IC50: CYP-IA2
# T7 construct: from tissue
# T7 sequence (P05177 1-516): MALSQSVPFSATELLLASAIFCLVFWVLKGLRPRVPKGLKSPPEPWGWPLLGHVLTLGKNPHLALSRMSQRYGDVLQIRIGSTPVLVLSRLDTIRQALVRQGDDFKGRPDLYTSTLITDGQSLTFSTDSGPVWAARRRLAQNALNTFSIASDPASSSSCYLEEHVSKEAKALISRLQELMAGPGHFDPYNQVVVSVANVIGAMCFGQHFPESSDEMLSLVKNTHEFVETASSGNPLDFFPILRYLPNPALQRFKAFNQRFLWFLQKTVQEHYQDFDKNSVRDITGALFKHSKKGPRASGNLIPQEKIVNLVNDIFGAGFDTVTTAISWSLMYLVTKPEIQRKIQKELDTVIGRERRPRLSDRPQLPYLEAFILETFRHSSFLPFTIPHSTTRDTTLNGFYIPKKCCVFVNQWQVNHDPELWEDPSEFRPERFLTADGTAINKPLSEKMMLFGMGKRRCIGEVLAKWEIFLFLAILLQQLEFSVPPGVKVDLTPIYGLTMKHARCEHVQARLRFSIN
# From the text: as §2
# [1] = target: CaV1.2 channel over KCa3.1 (Homo sapiens, UniProt Q13936); test: in vitro; settings: pH 7.4
# KV1.7 = target: T8, KV1.7 (Homo sapiens, UniProt Q96RP8); test: Potassium channels patch-clamp (QPatch), KV1.7; type: cell-based
# T8 construct: expressed in transfected cells; host or cells: CHL
# Protocol: as §1
# CYP-2C19 = CYP-2C19 (Homo sapiens, UniProt P33261); test: Cytochrome P450 enzymes inhibition assay, CYP-2C19; type: in vitro ADME; settings: for CYP IC50/KCa3.1 IC50: CYP-2C19
# From the text: as §2
# Sequence of CYP-2C19 (P33261 whole entry): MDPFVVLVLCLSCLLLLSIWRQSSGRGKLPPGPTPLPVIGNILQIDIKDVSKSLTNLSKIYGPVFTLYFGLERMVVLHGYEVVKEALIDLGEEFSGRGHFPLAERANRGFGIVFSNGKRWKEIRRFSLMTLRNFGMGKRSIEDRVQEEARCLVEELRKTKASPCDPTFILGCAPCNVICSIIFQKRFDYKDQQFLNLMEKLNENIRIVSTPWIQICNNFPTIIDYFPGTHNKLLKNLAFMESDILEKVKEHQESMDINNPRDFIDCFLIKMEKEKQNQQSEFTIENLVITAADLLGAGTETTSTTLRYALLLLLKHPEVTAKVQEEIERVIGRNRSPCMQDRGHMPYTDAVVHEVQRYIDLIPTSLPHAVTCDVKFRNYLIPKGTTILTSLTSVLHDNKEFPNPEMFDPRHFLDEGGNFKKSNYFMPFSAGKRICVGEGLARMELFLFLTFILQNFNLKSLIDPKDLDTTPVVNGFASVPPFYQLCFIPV
# T2 sequence (P08684 whole entry): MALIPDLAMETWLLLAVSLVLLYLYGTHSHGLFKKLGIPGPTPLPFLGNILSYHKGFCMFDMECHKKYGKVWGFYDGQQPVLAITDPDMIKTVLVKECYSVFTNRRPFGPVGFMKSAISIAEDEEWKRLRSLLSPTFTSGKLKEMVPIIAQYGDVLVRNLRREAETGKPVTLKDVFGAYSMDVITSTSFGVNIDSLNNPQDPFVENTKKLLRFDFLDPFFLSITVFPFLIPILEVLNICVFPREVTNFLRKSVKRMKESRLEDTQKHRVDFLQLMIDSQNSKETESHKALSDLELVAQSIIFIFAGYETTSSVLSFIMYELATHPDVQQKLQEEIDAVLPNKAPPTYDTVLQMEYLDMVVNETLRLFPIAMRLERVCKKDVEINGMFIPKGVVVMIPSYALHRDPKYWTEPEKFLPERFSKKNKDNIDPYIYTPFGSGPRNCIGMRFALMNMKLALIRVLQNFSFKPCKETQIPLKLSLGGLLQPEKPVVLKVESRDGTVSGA
# Sequence of CYP-2C9 (P11712 whole entry): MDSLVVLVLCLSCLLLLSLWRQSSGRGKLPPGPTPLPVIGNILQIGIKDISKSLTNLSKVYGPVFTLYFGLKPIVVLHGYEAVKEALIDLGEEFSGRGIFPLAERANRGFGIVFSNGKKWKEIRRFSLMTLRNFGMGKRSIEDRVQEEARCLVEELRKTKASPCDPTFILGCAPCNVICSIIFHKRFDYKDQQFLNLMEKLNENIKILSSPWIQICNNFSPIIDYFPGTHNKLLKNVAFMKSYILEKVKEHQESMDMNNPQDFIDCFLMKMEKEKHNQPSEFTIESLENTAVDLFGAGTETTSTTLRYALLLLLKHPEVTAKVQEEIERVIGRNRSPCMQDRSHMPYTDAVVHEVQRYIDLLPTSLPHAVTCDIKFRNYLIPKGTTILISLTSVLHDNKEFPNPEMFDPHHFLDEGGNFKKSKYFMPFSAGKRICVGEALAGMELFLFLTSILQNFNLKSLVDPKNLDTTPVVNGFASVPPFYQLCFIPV
# T5 sequence (P16390 whole entry): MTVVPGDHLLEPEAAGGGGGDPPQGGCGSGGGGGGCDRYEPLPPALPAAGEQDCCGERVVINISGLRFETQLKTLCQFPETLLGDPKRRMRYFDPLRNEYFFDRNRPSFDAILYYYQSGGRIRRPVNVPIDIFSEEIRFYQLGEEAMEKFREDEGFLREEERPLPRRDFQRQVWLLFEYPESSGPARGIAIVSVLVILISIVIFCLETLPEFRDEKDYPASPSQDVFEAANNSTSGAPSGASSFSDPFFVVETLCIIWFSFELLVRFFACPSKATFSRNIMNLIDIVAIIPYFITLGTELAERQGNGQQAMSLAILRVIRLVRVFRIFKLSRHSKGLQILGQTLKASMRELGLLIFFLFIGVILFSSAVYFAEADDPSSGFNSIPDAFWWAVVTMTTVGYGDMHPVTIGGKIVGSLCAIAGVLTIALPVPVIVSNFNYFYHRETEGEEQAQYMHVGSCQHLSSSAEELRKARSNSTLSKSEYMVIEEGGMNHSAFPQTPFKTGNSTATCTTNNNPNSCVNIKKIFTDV
# Sequence of CaV1.2 channel over KCa3.1 (Q13936 whole entry): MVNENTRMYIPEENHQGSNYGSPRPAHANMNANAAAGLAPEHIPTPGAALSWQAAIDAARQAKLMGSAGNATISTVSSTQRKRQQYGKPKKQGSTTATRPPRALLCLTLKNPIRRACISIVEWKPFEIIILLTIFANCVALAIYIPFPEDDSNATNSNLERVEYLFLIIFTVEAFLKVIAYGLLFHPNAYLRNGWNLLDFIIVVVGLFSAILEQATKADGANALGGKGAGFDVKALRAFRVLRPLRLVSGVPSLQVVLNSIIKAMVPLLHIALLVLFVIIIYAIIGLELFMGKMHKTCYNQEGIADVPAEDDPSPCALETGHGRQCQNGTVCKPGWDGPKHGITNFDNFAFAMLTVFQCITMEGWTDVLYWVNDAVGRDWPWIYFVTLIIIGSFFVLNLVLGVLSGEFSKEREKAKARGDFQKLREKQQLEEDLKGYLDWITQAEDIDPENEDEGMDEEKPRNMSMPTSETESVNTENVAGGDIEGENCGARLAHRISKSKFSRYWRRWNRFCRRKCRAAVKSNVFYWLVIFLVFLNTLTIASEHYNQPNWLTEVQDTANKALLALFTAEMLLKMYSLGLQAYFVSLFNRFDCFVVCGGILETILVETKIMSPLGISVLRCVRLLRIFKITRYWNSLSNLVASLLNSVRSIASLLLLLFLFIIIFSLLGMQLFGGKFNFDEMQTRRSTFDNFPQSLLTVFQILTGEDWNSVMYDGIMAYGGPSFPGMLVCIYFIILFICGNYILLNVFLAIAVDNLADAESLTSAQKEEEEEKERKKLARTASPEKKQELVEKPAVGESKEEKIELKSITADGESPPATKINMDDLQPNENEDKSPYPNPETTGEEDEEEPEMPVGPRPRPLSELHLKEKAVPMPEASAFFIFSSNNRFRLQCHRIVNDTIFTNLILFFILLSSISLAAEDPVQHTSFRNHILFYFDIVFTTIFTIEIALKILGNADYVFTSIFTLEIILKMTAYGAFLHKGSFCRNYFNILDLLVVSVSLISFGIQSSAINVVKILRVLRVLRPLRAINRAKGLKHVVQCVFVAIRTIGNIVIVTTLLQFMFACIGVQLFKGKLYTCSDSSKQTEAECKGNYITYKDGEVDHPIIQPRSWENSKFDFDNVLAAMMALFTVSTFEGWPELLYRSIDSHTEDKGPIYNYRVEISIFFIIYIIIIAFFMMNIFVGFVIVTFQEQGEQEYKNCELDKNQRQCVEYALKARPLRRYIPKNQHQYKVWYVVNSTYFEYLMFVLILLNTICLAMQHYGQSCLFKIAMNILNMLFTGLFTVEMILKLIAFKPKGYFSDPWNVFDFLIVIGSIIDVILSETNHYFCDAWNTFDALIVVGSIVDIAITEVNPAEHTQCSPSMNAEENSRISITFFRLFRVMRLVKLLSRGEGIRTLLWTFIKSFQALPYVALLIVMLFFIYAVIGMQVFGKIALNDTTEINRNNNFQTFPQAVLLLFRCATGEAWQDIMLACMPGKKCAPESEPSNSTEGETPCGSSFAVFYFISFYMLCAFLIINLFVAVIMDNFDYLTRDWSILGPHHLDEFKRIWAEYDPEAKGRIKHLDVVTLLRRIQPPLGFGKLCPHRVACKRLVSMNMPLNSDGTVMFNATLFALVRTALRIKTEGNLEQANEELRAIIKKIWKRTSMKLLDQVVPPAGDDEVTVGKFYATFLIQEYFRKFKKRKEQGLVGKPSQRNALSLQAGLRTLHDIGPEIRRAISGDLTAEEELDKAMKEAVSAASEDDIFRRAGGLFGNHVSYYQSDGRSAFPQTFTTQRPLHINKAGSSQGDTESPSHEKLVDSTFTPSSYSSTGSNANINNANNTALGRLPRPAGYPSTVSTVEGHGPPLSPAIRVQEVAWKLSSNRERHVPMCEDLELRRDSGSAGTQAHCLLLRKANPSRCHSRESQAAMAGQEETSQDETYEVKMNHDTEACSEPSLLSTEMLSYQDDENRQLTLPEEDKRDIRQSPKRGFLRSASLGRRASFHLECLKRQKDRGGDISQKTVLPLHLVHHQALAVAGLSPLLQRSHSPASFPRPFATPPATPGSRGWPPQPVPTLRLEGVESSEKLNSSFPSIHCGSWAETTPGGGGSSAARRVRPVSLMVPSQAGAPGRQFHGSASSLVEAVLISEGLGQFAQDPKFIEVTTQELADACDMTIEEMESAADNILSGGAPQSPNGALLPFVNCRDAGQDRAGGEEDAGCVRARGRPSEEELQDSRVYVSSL
# Sequence of CaV1.2 channel (Q13936 whole entry): as above
# T3 sequence (P63142 whole entry): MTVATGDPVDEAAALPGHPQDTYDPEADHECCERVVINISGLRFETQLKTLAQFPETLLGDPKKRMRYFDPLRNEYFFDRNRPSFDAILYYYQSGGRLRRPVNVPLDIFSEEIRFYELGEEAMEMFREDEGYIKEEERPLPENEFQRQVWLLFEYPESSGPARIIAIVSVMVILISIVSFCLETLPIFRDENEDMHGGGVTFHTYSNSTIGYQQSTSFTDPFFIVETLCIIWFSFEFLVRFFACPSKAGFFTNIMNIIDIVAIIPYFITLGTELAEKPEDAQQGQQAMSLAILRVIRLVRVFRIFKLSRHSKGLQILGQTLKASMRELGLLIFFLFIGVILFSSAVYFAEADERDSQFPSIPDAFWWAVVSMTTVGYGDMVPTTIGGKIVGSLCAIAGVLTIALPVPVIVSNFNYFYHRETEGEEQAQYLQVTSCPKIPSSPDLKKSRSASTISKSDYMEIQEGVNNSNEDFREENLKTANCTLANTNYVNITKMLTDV
SMILES,half-life at 1 μM (in vitro),IC50 (CaV1.2 channel),IC50 (KV1.4),CYP IC50/KCa3.1 IC50 (CYP-3A4),IC50 (KV1.2),IC50 (KV11.1 (hERG)),IC50 (KV1.3),CYP IC50/KCa3.1 IC50 (CYP-2C9),IC50 (KV4.2),"IC50 (KCa3.1 channel; KCa3.1, Table 5)","IC50 (KCa3.1 channel; KCa3.1 IC50 (nM), Table 3)",CYP IC50/KCa3.1 IC50 (CYP-IA2),selectivity ratio [1],IC50 (KV1.7),CYP IC50/KCa3.1 IC50 (CYP-2C19),IC50 (CYP-3A4; microsomes),IC50 (CYP-2C9; microsomes),"IC50 (KCa3.1 channel; IC50 (nM), block of KCa3.1, patch clamp (Table 2))",IC50 (CYP-IA2; microsomes),IC50 (CYP-2C19; microsomes)
"COC(=O)C1=CNC=C(C(=O)OC)C1c1ccc(F)c(C(F)(F)F)c1 [Compound 103, Dimethyl 4-(4-fluoro-3-(trifluoromethyl)phenyl)-1,4-dihydropyridine-3,5-dicarboxylate]",16 min,13.5 µM,> 10 µM,3279,> 10 µM,> 10 µM,> 10 µM,836,> 10 µM,6.1 ± 0.9 nM,6.1 nM,3279,2210,> 10 µM,3279,,,,,
COC(=O)C1=C(C)NC(C)=C(C(=O)OC)C1c1ccc(F)c(C(F)(F)F)c1 [Compound 101],22 min,3.2 µM,> 10 µM,79.75,> 10 µM,> 10 µM,> 10 µM,162.5,> 10 µM,16.2 ± 0.2 nM,,558,200,> 10 µM,1226,1.3 µM,2.6 µM,16 ± 0.2 nM,9.1 µM,> 20 µM
